In US4699907A, “4-morpholinyl-1H-indoles, pharmaceutical compositions and use” (Roussel Uclaf, priority 1985, dated 1987):

Legend:
mice = test: Acute toxicity study; type: in vivo; conditions: oral administration to mice
Experimental: The lethal doses LDO of the different compounds tested were evaluated after oral administration to mice.

hippocampus of the rat = test: Test for neuron activation (accumulation of 2-deoxyglucose-6-phosphate); type: in vivo; conditions: 14C 2-deoxyglucose tracer dose
Experimental: C: Test for neuron activation
Neuron activation causes an increase in the corresponding metabolism which is shown by an increase in the consumption of glucose, a proof of energy consumption. This increase was evaluated by measuring the accumulation in the neuron cells of 2deoxyglucose-6-phosphate stemming from the conversion by hexokinase of 2-deoxyglucose ^14 C, an analogue of glucose, administered as a tracer dose, which used the same route of entry into the cell as glucose.

male rats = test: Test of labyrinth in T after partial lesion of the septo hippocampic route; type: in vivo, rat; conditions: electrolytic partial septo-hippocampic lesion, 20 mg/kg orally, 1 hour before test, days +5 to +8, compared to untreated animals
Experimental: A: Test of labyrinth in T after partial lesion of the septo hippocampic route
By means of an electrolytic partial lesion of neurons of the septo-hippocampic route, a disfunction of the cognitive faculty was provoked in male rats having acquired an apprenticeship in a labyrinth in the form of a T and then the speed of recovery of the disturbed memory faculties was measured. The animals got accustomed to their new environment on days -9 to -6 and rested on days -5 and -4. Their apprenticeship was carried out on days -3 to 0. At this time, the response of the rats was positive at 75-80%. On day 0, the lesion was carried out and the animals rested on days +1 to +3. The animals were tested on day +4 and at this time, only 50% of the responses were positive. From day +5 to +8, the rats were tested after being treated orally with the products under test 1 hour earlier. On day +11, the rats were tested without treatment. The percentage of positive responses of the treated animals were compared in relation to the untreated animals.

enolase γγ = test: Test for enolase (kainic acid induced neuron lesions); type: in vivo; conditions: mice; 1 mg/kg intraperitoneally one hour before 35 mg/kg sub-cutaneous kainic acid

| Compound | LDO (maximum dose which does not cause mortality in 8 days) (mice) [mg/kg] | accumulation of 2-deoxyglucose 6-P in the hippocampus (hippocampus of the rat) | recovery of the memory functions (male rats) | decrease of the serous concentration of enolase γγ (enolase γγ) [%] |
| --- | --- | --- | --- | --- |
| CN1C[C@H](CO)O[C@H](c2cccc3[nH]ccc23)C1 (relative stereo) [Example 3, (2RS, 6RS) 6-(1H-indol-4-yl)-4-methyl-2-morpholine methanol] | ≥ 400 | – | – | – |
| N,N-diethyl 6-(1H-indol-4-yl)-4-methyl-2-morpholine carboxamide [Example 2] | ≥ 200 | – | – | – |
| CN1C[C@H](CC#N)O[C@H](c2cccc3[nH]ccc23)C1 (relative stereo) [Example 5, (2SR, 6RS) 6-(1H-indol-4-yl)-4-methyl-2-morpholine acetonitrile] | ≥ 200 | – | – | – |
| CSC[C@H]1CN(C)C[C@@H](c2cccc3[nH]ccc23)O1 (relative stereo) [Example 4, 4-[(2R-cis) 4-methyl-6-[(methylthio)methyl]-2-morpholinyl]-1H-indole (dl)] | 200 | increase in the accumulation of 2-deoxyglucose 6-P | significantly improved the recovery of the memory functions | 34 |
